Measurements: ChEMBL document CHEMBL4419178, “Yap1 inhibitors that target the interaction of yap1 with oct4” (2018)
One block for each compound: values may come before it. The source made the active and inactive calls. No cut-off for these calls is given here.

Tests used:
[1] = molecular target: Transcriptional coactivator YAP1 (Homo sapiens) (UniProt P46937); test: Inhibition of YAP1 in human A549 cells assessed as suppression of ICAM1 level by cytokine array assay; format: cell-based
[2] = molecular target: Transcriptional coactivator YAP1 (Homo sapiens) (UniProt P46937); test: Inhibition of YAP1 in human A549 cells assessed as suppression of ICAM1 level in presence of cancer associated fibroblasts by cytokine array assay; format: cell-based
[3] = molecular target: Transcriptional coactivator YAP1 (Homo sapiens) (UniProt P46937); test: Inhibition of YAP1 in human A549 cells assessed as suppression of Serpine-E1 level in presence of cancer associated fibroblasts by cytokine array assay; format: cell-based
[4] = molecular target: Transcriptional coactivator YAP1 (Homo sapiens) (UniProt P46937); test: Inhibition of YAP1 in human A549 cells assessed as suppression of CXCL12 level by cytokine array assay; format: cell-based
[5] = molecular target: Transcriptional coactivator YAP1 (Homo sapiens) (UniProt P46937); test: Inhibition of YAP1 in human A549 cells assessed as suppression of CCL2 level in presence of cancer associated fibroblasts by cytokine array assay; format: cell-based
[6] = molecular target: Transcriptional coactivator YAP1 (Homo sapiens) (UniProt P46937); test: Inhibition of YAP1 in human A549 cells assessed as suppression of CCL2 level by cytokine array assay; format: cell-based
[7] = molecular target: Transcriptional coactivator YAP1 (Homo sapiens) (UniProt P46937); test: Inhibition of YAP1 in human A549 cells assessed as suppression of IL8 level in presence of cancer associated fibroblasts by cytokine array assay; format: cell-based
[8] = molecular target: Transcriptional coactivator YAP1 (Homo sapiens) (UniProt P46937); test: Inhibition of YAP1 in human A549 cells assessed as suppression of CXCL1 level by cytokine array assay; format: cell-based
[9] = molecular target: Transcriptional coactivator YAP1 (Homo sapiens) (UniProt P46937); test: Inhibition of YAP1 in human A549 cells assessed as suppression of IL6 level by cytokine array assay; format: cell-based
[10] = molecular target: Transcriptional coactivator YAP1 (Homo sapiens) (UniProt P46937); test: Inhibition of YAP1 in human A549 cells assessed as suppression of IL18 level by cytokine array assay; format: cell-based
[11] = molecular target: Transcriptional coactivator YAP1 (Homo sapiens) (UniProt P46937); test: Inhibition of YAP1 in human A549 cells assessed as suppression of MIF level in presence of cancer associated fibroblasts by cytokine array assay; format: cell-based
[12] = molecular target: Transcriptional coactivator YAP1 (Homo sapiens) (UniProt P46937); test: Inhibition of YAP1 in human A549 cells assessed as suppression of CXCL12 level in presence of cancer associated fibroblasts by cytokine array assay; format: cell-based
[13] = molecular target: Transcriptional coactivator YAP1 (Homo sapiens) (UniProt P46937); test: Inhibition of YAP1 in human A549 cells assessed as suppression of IL32-alpha level by cytokine array assay; format: cell-based
[14] = molecular target: Transcriptional coactivator YAP1 (Homo sapiens) (UniProt P46937); test: Inhibition of YAP1 in human A549 cells assessed as suppression of IL1alpha level by cytokine array assay; format: cell-based
[15] = molecular target: Transcriptional coactivator YAP1 (Homo sapiens) (UniProt P46937); test: Inhibition of YAP1 in human A549 cells assessed as suppression of CD40L level by cytokine array assay; format: cell-based
[16] = molecular target: Transcriptional coactivator YAP1 (Homo sapiens) (UniProt P46937); test: Inhibition of YAP1 in human NCI-H1650 cells assessed as reduction in Sox2 protein expression at 5 uM by Western blot analysis; format: cell-based
[17] = molecular target: Transcriptional coactivator YAP1 (Homo sapiens) (UniProt P46937); test: Inhibition of YAP1 in human A549 cells assessed as suppression of IL8 level by cytokine array assay; format: cell-based
[18] = molecular target: Transcriptional coactivator YAP1 (Homo sapiens) (UniProt P46937); test: Inhibition of YAP1 in human A549 cells assessed as suppression of Serpine-E1 level by cytokine array assay; format: cell-based
[19] = molecular target: Transcriptional coactivator YAP1 (Homo sapiens) (UniProt P46937); test: Inhibition of YAP1 in human A549 cells assessed as suppression of MIF level by cytokine array assay; format: cell-based
[20] = molecular target: Transcriptional coactivator YAP1 (Homo sapiens) (UniProt P46937); test: Inhibition of YAP1 in human A549 cells assessed as suppression of IL13 level by cytokine array assay; format: cell-based
[21] = molecular target: Transcriptional coactivator YAP1 (Homo sapiens) (UniProt P46937); test: Inhibition of YAP1 in human A549 cells assessed as suppression of IL6 level in presence of cancer associated fibroblasts by cytokine array assay; format: cell-based
[22] = molecular target: Transcriptional coactivator YAP1 (Homo sapiens) (UniProt P46937); test: Inhibition of YAP1 in human A549 cells assessed as reduction in Sox2 protein expression at 5 uM by Western blot analysis; format: cell-based
[23] = molecular target: Transcriptional coactivator YAP1 (Homo sapiens) (UniProt P46937); test: Inhibition of YAP1 in human NCI-H1650 cells assessed as suppression of PDK2 mRNA expression at 5 to 10 uM incubated for 72 hrs by RT-PCR method; format: cell-based
NCI-H1650 = test: Inhibition of self-renewal capacity in cisplatin insensitive stem-like side-population cells of human NCI-H1650 cells assessed as reduction in number of spheres at 2 uM incubated for 5 days after 7 days cisplatin exposure by sphere formation assay; format: functional, cell-based
[24] = molecular target: Transcriptional coactivator YAP1 (Homo sapiens) (UniProt P46937); test: Inhibition of YAP1 in human NCI-H146 cells assessed as suppression of PDK2 mRNA expression at 5 to 10 uM incubated for 72 hrs by RT-PCR method; format: cell-based
[25] = molecular target: Transcriptional coactivator YAP1 (Homo sapiens) (UniProt P46937); test: Inhibition of YAP1 in human NCI-H1703 cells assessed as suppression of PDK2 mRNA expression at 5 to 10 uM incubated for 72 hrs by RT-PCR method; format: cell-based
[26] = molecular target: Transcriptional coactivator YAP1 (Homo sapiens) (UniProt P46937); test: Inhibition of YAP1 in human NCI-H1650 cells assessed as suppression of PD-L1 mRNA expression at 5 to 10 uM incubated for 72 hrs by RT-PCR method; format: cell-based
[27] = molecular target: Transcriptional coactivator YAP1 (Homo sapiens) (UniProt P46937); test: Inhibition of YAP1 in human NCI-H1703 cells assessed as suppression of HK2 mRNA expression at 5 to 10 uM incubated for 72 hrs by RT-PCR method; format: cell-based
[28] = molecular target: Transcriptional coactivator YAP1 (Homo sapiens) (UniProt P46937); test: Inhibition of YAP1 in human NCI-H146 cells assessed as suppression of HK2 mRNA expression at 5 to 10 uM incubated for 72 hrs by RT-PCR method; format: cell-based
[29] = molecular target: Transcriptional coactivator YAP1 (Homo sapiens) (UniProt P46937); test: Inhibition of YAP1 in human NCI-H1703 cells assessed as suppression of PD-L1 mRNA expression at 5 to 10 uM incubated for 72 hrs by RT-PCR method; format: cell-based
[30] = molecular target: Transcriptional coactivator YAP1 (Homo sapiens) (UniProt P46937); test: Inhibition of YAP1 in human NCI-H1650 cells assessed as suppression of HK2 mRNA expression at 5 to 10 uM incubated for 72 hrs by RT-PCR method; format: cell-based

Chain of Transcriptional coactivator YAP1 (Homo sapiens) (P46937 whole entry): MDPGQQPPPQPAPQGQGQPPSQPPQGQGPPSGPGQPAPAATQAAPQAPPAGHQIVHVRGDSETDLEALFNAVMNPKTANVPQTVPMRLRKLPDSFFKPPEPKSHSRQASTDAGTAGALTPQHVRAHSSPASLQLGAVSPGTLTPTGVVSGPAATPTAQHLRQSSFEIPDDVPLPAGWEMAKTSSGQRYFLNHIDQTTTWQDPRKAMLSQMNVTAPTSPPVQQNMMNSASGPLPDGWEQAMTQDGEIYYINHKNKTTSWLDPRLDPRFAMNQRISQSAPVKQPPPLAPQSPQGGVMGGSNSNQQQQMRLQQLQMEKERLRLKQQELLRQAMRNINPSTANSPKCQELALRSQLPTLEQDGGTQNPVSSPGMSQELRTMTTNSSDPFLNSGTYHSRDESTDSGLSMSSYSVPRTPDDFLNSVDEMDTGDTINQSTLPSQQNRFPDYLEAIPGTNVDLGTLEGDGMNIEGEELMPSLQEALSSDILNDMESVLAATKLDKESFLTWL

- inhibition [1]: Active
- inhibition [2]: Active
- inhibition [3]: Active
- inhibition [4]: Active
- inhibition [5]: Active
- inhibition [6]: Active
- inhibition [7]: Active
- inhibition [8]: Active
- inhibition [9]: Active
- inhibition [10]: Active
- inhibition [11]: Active
- inhibition [12]: Active
- inhibition [13]: Active
- inhibition [14]: Active
- inhibition [15]: Active
- inhibition [16]: Active
- inhibition [17]: Active
- inhibition [18]: Active
- inhibition [19]: Active
- inhibition [20]: Active
- inhibition [21]: Active
- inhibition [22]: Active
Structure (SMILES): COC(=O)[C@H](Cc1ccc(OCc2ccccc2)cc1)NC(=O)CC1CCN(C(=O)CCc2ccc(C#N)cc2)CC1

- inhibition [23]: Active
- inhibition [24]: Active
- inhibition [25]: Active
- inhibition [26]: Active
- inhibition [27]: Active
- inhibition [28]: Active
- inhibition [29]: Active
- inhibition [30]: Active
Structure (SMILES): COC(=O)[C@H](Cc1ccc(OCc2ccccc2)cc1)NC(=O)CC1CCN(C(=O)CCc2ccc(Cl)c(Cl)c2)CC1
- inhibition (NCI-H1650): Active
